# According to US9528155B2, “In vitro method for determining immunotoxicity of a compound” (UNIVERSITEIT MAASTRICHT, priority 2012, dated 2016):
# Read-outs that look alike come from different tables or passages of the source.
# Experiments:
# Type in all cases: cell-based, human
# HMGCS1 = experiment: Fluidigm multiplex real-time quantitative PCR of marker gene HMGCS1 in exposed Jurkat cells
# CRIM1 = experiment: Fluidigm multiplex real-time quantitative PCR of marker gene CRIM1 in exposed Jurkat cells
# CHAC1 = experiment: Fluidigm multiplex real-time quantitative PCR of marker gene CHAC1 in exposed Jurkat cells
# ABCA1 = experiment: Fluidigm multiplex real-time quantitative PCR of marker gene ABCA1 in exposed Jurkat cells
# [1] = Jurkat cells, 6 h exposure at sub-cytotoxic exposure conc. of Tables 1/2, vs vehicle control, N=3, below -1.0 = underexpression
Compound,Expression levels of marker genes upon exposure: HMGCS1 (Fold Change) (HMGCS1; [1]),Expression levels of marker genes upon exposure: CRIM1 (Fold Change) (CRIM1; [1]),Expression levels of marker genes upon exposure: CHAC1 (Fold Change) (CHAC1; [1]),Expression levels of marker genes upon exposure: ABCA1 (Fold Change) (ABCA1; [1]),Expression levels of marker genes upon exposure: ABCA1 (Fold Change) (ABCA1),Expression levels of marker genes upon exposure: CRIM1 (Fold Change) (CRIM1),Expression levels of marker genes upon exposure: HMGCS1 (Fold Change) (HMGCS1),Expression levels of marker genes upon exposure: CHAC1 (Fold Change) (CHAC1)
"CCCCC(CC)COC(=O)c1ccccc1C(=O)OCC(CC)CCCC (stereo not shown) [DEHP, Bis(2-ethylhexyl)phthalate]",1.2 ± 0.1,1.9 ± 1.5,–,–,–,–,–,–
"Sc1ncnc2nc[nH]c12 [6MP, 6-mercaptopurine]",–,1.0 ± 0.6,1.8 ± 1.1,–,–,–,–,–
"C[C@]12C=CC(=O)C=C1CC[C@@H]1[C@@H]2[C@@H](O)C[C@@]2(C)[C@H]1CC[C@]2(O)C(=O)CO [PRD, prednisolone]",1.7 ± 0.1,3.9 ± 0.6,2.7 ± 1.9,1.0 ± 0.6,–,–,–,–
"Cn1c(N)nc2c3cccnc3ccc21 [IQ, 2-amino-3-methyl-3H-imidazo[4,5-F]quinoline]",–,–,–,–,1.0 ± 2.2,1.1 ± 1.8,–,–
O=S(=O)(O)C(F)(F)C(F)(F)C(F)(F)C(F)(F)C(F)(F)C(F)(F)C(F)(F)C(F)(F)F [PFOS],–,–,–,–,−4.3 ± 0.2,−1.5 ± 0.4,−1.1 ± 0.2,1.8 ± 1.5
OC[C@@H](O)[C@@H](O)[C@H](O)[C@H](O)CO [MANNITOL],1.2 ± 0.3,1.1 ± 0.7,–,–,–,–,–,–
"[Cl][Cd][Cl] [CdCl2, cadmium dichloride]",2.2 ± 1.3,4.3 ± 2.0,7.0 ± 1.5,1.3 ± 1.3,–,–,–,–
"CCC(=O)Nc1ccc(Cl)c(Cl)c1 [PROP, N-(3,4-Dichloro-phenyl)propanamide]",–,1.4 ± 0.1,–,1.3 ± 1,–,–,–,–
"C[C@@H]1Cc2c(Cl)cc(C(=O)N[C@@H](Cc3ccccc3)C(=O)O)c(O)c2C(=O)O1 [OTA, ochratoxin A]",−2.5 ± 0.1,−1.3 ± 0.1,32.9 ± 14.5,−2.2 ± 0.1,–,–,–,–
"ochratoxin A, S9-treated [OTA S9]",2.0 ± 1.0,−1.1 ± 0.5,−13.8 ± 0.0,1.3 ± 1.8,–,–,–,–
"C=CC(=O)NCNC(=O)C=C [MBA, N,N′-methylenebisacrylamide]",–,–,–,–,–,1.1 ± 1.9,1.0 ± 1.1,1.5 ± 2.1
"CC1(C)S[C@@H]2[C@H](NC(=O)[C@H](N)c3ccccc3)C(=O)N2[C@H]1C(=O)O [AMP, ampicillin]",1.4 ± 0.3,1.2 ± 1.1,–,–,–,–,–,–
"O=[N+]([O-])[O-].[Ag+] [AgNO3, silver nitrate]",1.6 ± 0.9,1.1 ± 0.3,−1.1 ± 0.5,1.5 ± 1.2,–,–,–,–
"CN(Cc1cnc2nc(N)nc(N)c2n1)c1ccc(C(=O)N[C@@H](CCC(=O)O)C(=O)O)cc1 [MTX, methotrexate]",–,1.4 ± 1.1,–,–,–,–,–,–
arsenic trioxide [As2O3],−1.1 ± 0.2,2.4 ± 1.1,41.2 ± 32.5,1.4 ± 0.3,–,–,–,–
tributyltin oxide [TBTO],−1.5 ± 0.1,−1.1 ± 0.8,−1.1 ± 0.4,30.9 ± 8.5,–,–,–,–
"CCCCC(CC)COC(=O)c1ccccc1C(=O)O (stereo not shown) [MEHP, mono-(2-ethylhexyl) phthalate]",–,–,–,–,−1.2 ± 0.1,−1 ± 0.6,1.6 ± 0.9,3.5 ± 2.1
"O=[N+]([O-])c1ccc2ccc3cccc4ccc1c2c34 [1-NPR, 1-Nitropyrene]",–,–,–,–,1.3 ± 1.2,1.3 ± 1.6,–,–
CCOC(N)=O [urethane],1.2 ± 0.3,1.1 ± 0.5,1.2 ± 0.4,–,–,–,–,–
"Cn1cnc([N+](=O)[O-])c1Sc1ncnc2nc[nH]c12 [AZA, azathioprine]",1.1 ± 0.2,1.8 ± 1.0,2.3 ± 2.1,–,–,–,–,–
"CC1=C[C@H]2O[C@@H]3[C@H](O)C[C@](C)([C@@]2(CO)[C@H](O)C1=O)[C@]31CO1 [DON, deoxynivalenol]",−1.5 ± 0.3,1.4 ± 0.4,−1.4 ± 0.4,−1.9 ± 0.2,–,–,–,–
"CN(C)N=O [DMNA, dimethylnitrosamine]",–,–,–,–,−1.8±,−12 ± 1.5,1.2 ± 1.1,−1.5 ± 1.5
"O=P1(N(CCCl)CCCl)NCCCO1 (stereo not shown) [CP S9, cyclophosphamide]",2.0 ± 1,1.1 ± 0.3,–,1.9 ± 1.6,–,–,–,–
"Cl[C@H]1[C@H](Cl)[C@@H](Cl)[C@@H](Cl)[C@H](Cl)[C@H]1Cl [LIN, Gamma-hexachlorocyclohexane]",−2.4 ± 0,2.3 ± 0.1,10.2 ± 7.6,3.4 ± 3.6,–,–,–,–
"C[C@@H]1C[C@H]2[C@@H]3CCC4=CC(=O)C=C[C@]4(C)[C@@]3(F)[C@@H](O)C[C@]2(C)[C@@]1(O)C(=O)CO [DEX, dexamethasone]",1.0 ± 0.1,1.4 ± 0.6,–,–,–,–,–,–
"Clc1cc(Cl)c(-c2cc(Cl)c(Cl)cc2Cl)cc1Cl [PCB153, polychlorinated biphenyl 153]",–,–,–,–,1.1 ± 1.4,−1.2 ± 2.2,2.0 ± 1.2,1.2 ± 3
"CCO [EtOH, ethanol]",–,–,34.3 ± 2.3,1.2 ± 1.0,–,–,–,–
"COc1c(C)c2c(c(O)c1C/C=C(\C)CCC(=O)O)C(=O)OC2 [MPA, mycophenolic acid]",–,–,1.5 ± 0.9,1.1 ± 0.7,–,–,–,–
